Organism: Rattus norvegicus
Test: DrugMatrix - Regimen: Daily Repeat
Assay type: toxicity, organism-based, Sprague-Dawley
Set-up: regimen Daily Repeat, gender Male, age 6-8 weeks
Conditions: in vivo, po, route oral GAVAGE, vehicle .5 % CMC; for ABSOLUTE BASOPHIL / ABSOLUTE EOSINOPHIL / ABSOLUTE LYMPHOCYTE / ABSOLUTE MONOCYTE / BASOPHIL / ERYTHROCYTE COUNT / HEMATOCRIT / HEMOGLOBIN / LYMPHOCYTE / MEAN CORPUSCULAR HEMOGLOBIN / MEAN CORPUSCULAR HEMOGLOBIN CONCENTRATION / MEAN CORPUSCULAR VOLUME / NEUTROPHIL / NUCLEATED RED BLOOD CELLS / PLATELET COUNT / ABSOLUTE SEGMENTED NEUTROPHIL: tissue Blood; for ALANINE AMINOTRANSFERASE / ALKALINE PHOSPHATASE / ASPARTATE AMINOTRANSFERASE / BLOOD UREA NITROGEN / CARBON DIOXIDE / CHOLESTEROL / CREATINE PHOSPHOKINASE / CREATININE / GLUCOSE / LACTATE DEHYDROGENASE / LIPASE / PHOSPHORUS / POTASSIUM / SODIUM / TOTAL BILIRUBIN / TOTAL PROTEIN: tissue Plasma
[1] = 0 mg/kg, 72 h, dose level Control, time 3 day
[2] = 0 mg/kg, 120 h, dose level Control, time 5 day
[3] = 0.06 mg/kg, 72 h, dose level Low, time 3 day
[4] = 0.06 mg/kg, 120 h, dose level Low, time 5 day
[5] = […], 72 h, dose 0.25 mg/Kg, dose level High, time 3 day
[6] = […], 120 h, dose 0.25 mg/Kg, dose level High, time 5 day

## CC(=O)CC(c1ccccc1)c1c(O)c2ccccc2oc1=O (stereo not given) [WARFARIN]
[1]
  ABSOLUTE BASOPHIL: 0 CELLS/uL
  ABSOLUTE EOSINOPHIL: 284.5 CELLS/uL
  ABSOLUTE LYMPHOCYTE: 11670.5 CELLS/uL
  ABSOLUTE MONOCYTE: 420.83 CELLS/uL
  BASOPHIL: 0%
  ERYTHROCYTE COUNT: 5.38 x10E6/uL
  HEMATOCRIT: 34.05%
  HEMOGLOBIN: 12.75 G/DL
  LYMPHOCYTE: 88.33%
  MEAN CORPUSCULAR HEMOGLOBIN: 23.73 pg
  MEAN CORPUSCULAR HEMOGLOBIN CONCENTRATION: 37.43 G/DL
  MEAN CORPUSCULAR VOLUME: 63.4 fL
  NEUTROPHIL: 7.17%
  NUCLEATED RED BLOOD CELLS: 0 /100WBC
  PLATELET COUNT: 1184.67 x10E3/uL
  ALANINE AMINOTRANSFERASE: 45.33 u/L
  ALKALINE PHOSPHATASE: 388.83 u/L
  ASPARTATE AMINOTRANSFERASE: 84.83 u/L
  BLOOD UREA NITROGEN: 15.5 mg/dL
  CARBON DIOXIDE: 27 mmol/L
  CHOLESTEROL: 76.67 mg/dL
  CREATINE PHOSPHOKINASE: 301 u/L
  CREATININE: 0.21 mg/dL
  GLUCOSE: 168.83 mg/dL
  LACTATE DEHYDROGENASE: 294.83 u/L
  LIPASE: 9.8 u/L
  PHOSPHORUS: 13.25 mg/dL
  POTASSIUM: 6.41 MEQ/L
  SODIUM: 143.72 MEQ/L
  TOTAL BILIRUBIN: 0.22 mg/dL
  TOTAL PROTEIN: 5.98 G/DL
[2]
  ABSOLUTE BASOPHIL: 0 CELLS/uL
  ABSOLUTE EOSINOPHIL: 190.67 CELLS/uL
  ABSOLUTE LYMPHOCYTE: 12549.5 CELLS/uL
  ABSOLUTE MONOCYTE: 276 CELLS/uL
  ABSOLUTE SEGMENTED NEUTROPHIL: 1067.17 CELLS/uL
  BASOPHIL: 0%
  ERYTHROCYTE COUNT: 5.66 x10E6/uL
  HEMATOCRIT: 35.92%
  HEMOGLOBIN: 13.65 G/DL
  LYMPHOCYTE: 89%
  MEAN CORPUSCULAR HEMOGLOBIN: 24.12 pg
  MEAN CORPUSCULAR HEMOGLOBIN CONCENTRATION: 38.03 G/DL
  MEAN CORPUSCULAR VOLUME: 63.47 fL
  NEUTROPHIL: 7.67%
  NUCLEATED RED BLOOD CELLS: 0.17 /100WBC
  PLATELET COUNT: 1251.67 x10E3/uL
  ALANINE AMINOTRANSFERASE: 43.33 u/L
  ALKALINE PHOSPHATASE: 365.67 u/L
  ASPARTATE AMINOTRANSFERASE: 83.67 u/L
  BLOOD UREA NITROGEN: 18.17 mg/dL
  CARBON DIOXIDE: 28.67 mmol/L
  CHOLESTEROL: 71.5 mg/dL
  CREATINE PHOSPHOKINASE: 284.5 u/L
  CREATININE: 0.21 mg/dL
  GLUCOSE: 161.67 mg/dL
  LACTATE DEHYDROGENASE: 259.67 u/L
  LIPASE: 9.5 u/L
  PHOSPHORUS: 12.45 mg/dL
  POTASSIUM: 6.49 MEQ/L
  SODIUM: 144.25 MEQ/L
  TOTAL BILIRUBIN: 0.2 mg/dL
  TOTAL PROTEIN: 6.1 G/DL
[3]
  ABSOLUTE BASOPHIL: 0 CELLS/uL
  ABSOLUTE EOSINOPHIL: 18.67 CELLS/uL
  ABSOLUTE LYMPHOCYTE: 6429.67 CELLS/uL
  ABSOLUTE MONOCYTE: 120.33 CELLS/uL
  ABSOLUTE SEGMENTED NEUTROPHIL: 364.67 CELLS/uL
  BASOPHIL: 0%
  ERYTHROCYTE COUNT: 5.26 x10E6/uL
  HEMATOCRIT: 33.97%
  HEMOGLOBIN: 12.8 G/DL
  LYMPHOCYTE: 92.67%
  MEAN CORPUSCULAR HEMOGLOBIN: 24.33 pg
  MEAN CORPUSCULAR HEMOGLOBIN CONCENTRATION: 37.67 G/DL
  MEAN CORPUSCULAR VOLUME: 64.6 fL
  NEUTROPHIL: 5.33%
  NUCLEATED RED BLOOD CELLS: 0 /100WBC
  PLATELET COUNT: 1234.33 x10E3/uL
  ALANINE AMINOTRANSFERASE: 50 u/L
  ALKALINE PHOSPHATASE: 307.67 u/L
  ASPARTATE AMINOTRANSFERASE: 80.67 u/L
  BLOOD UREA NITROGEN: 15.33 mg/dL
  CARBON DIOXIDE: 28.67 mmol/L
  CHOLESTEROL: 72.67 mg/dL
  CREATINE PHOSPHOKINASE: 222.67 u/L
  CREATININE: 0.21 mg/dL
  GLUCOSE: 142.33 mg/dL
  LACTATE DEHYDROGENASE: 174.67 u/L
  LIPASE: 9.5 u/L
  PHOSPHORUS: 12.87 mg/dL
  POTASSIUM: 6.97 MEQ/L
  SODIUM: 146.9 MEQ/L
  TOTAL BILIRUBIN: 0.23 mg/dL
  TOTAL PROTEIN: 6.03 G/DL
[4]
  ABSOLUTE BASOPHIL: 0 CELLS/uL
  ABSOLUTE EOSINOPHIL: 123.33 CELLS/uL
  ABSOLUTE LYMPHOCYTE: 12690 CELLS/uL
  ABSOLUTE MONOCYTE: 175.33 CELLS/uL
  ABSOLUTE SEGMENTED NEUTROPHIL: 1111.33 CELLS/uL
  BASOPHIL: 0%
  ERYTHROCYTE COUNT: 5.59 x10E6/uL
  HEMATOCRIT: 35.53%
  HEMOGLOBIN: 13.5 G/DL
  LYMPHOCYTE: 90%
  MEAN CORPUSCULAR HEMOGLOBIN: 24.2 pg
  MEAN CORPUSCULAR HEMOGLOBIN CONCENTRATION: 38 G/DL
  MEAN CORPUSCULAR VOLUME: 63.67 fL
  NEUTROPHIL: 8%
  NUCLEATED RED BLOOD CELLS: 0 /100WBC
  PLATELET COUNT: 1320.67 x10E3/uL
  ALANINE AMINOTRANSFERASE: 47.33 u/L
  ALKALINE PHOSPHATASE: 339.67 u/L
  ASPARTATE AMINOTRANSFERASE: 76.33 u/L
  BLOOD UREA NITROGEN: 16 mg/dL
  CHOLESTEROL: 66.67 mg/dL
  CREATINE PHOSPHOKINASE: 293.33 u/L
  CREATININE: 0.14 mg/dL
  GLUCOSE: 149 mg/dL
  LACTATE DEHYDROGENASE: 203 u/L
  LIPASE: 9.33 u/L
  PHOSPHORUS: 13.2 mg/dL
  POTASSIUM: 6.78 MEQ/L
  SODIUM: 144.27 MEQ/L
  TOTAL BILIRUBIN: 0.2 mg/dL
  TOTAL PROTEIN: 6 G/DL
[5]
  ABSOLUTE BASOPHIL: 0 CELLS/uL
  ABSOLUTE EOSINOPHIL: 246.33 CELLS/uL
  ABSOLUTE LYMPHOCYTE: 13716 CELLS/uL
  ABSOLUTE MONOCYTE: 364 CELLS/uL
  ABSOLUTE SEGMENTED NEUTROPHIL: 1007 CELLS/uL
  BASOPHIL: 0%
  ERYTHROCYTE COUNT: 5.82 x10E6/uL
  HEMATOCRIT: 37.73%
  HEMOGLOBIN: 14.07 G/DL
  LYMPHOCYTE: 89.33%
  MEAN CORPUSCULAR HEMOGLOBIN: 24.2 pg
  MEAN CORPUSCULAR HEMOGLOBIN CONCENTRATION: 37.33 G/DL
  MEAN CORPUSCULAR VOLUME: 64.87 fL
  NEUTROPHIL: 6.67%
  NUCLEATED RED BLOOD CELLS: 0 /100WBC
  PLATELET COUNT: 1397.33 x10E3/uL
  ALANINE AMINOTRANSFERASE: 57 u/L
  ALKALINE PHOSPHATASE: 354 u/L
  ASPARTATE AMINOTRANSFERASE: 82 u/L
  BLOOD UREA NITROGEN: 15.33 mg/dL
  CARBON DIOXIDE: 25.67 mmol/L
  CHOLESTEROL: 86 mg/dL
  CREATINE PHOSPHOKINASE: 467.67 u/L
  CREATININE: 0.18 mg/dL
  GLUCOSE: 156 mg/dL
  LACTATE DEHYDROGENASE: 145 u/L
  LIPASE: 10.67 u/L
  PHOSPHORUS: 13.7 mg/dL
  POTASSIUM: 6.91 MEQ/L
  SODIUM: 145.27 MEQ/L
  TOTAL BILIRUBIN: 0.23 mg/dL
  TOTAL PROTEIN: 5.93 G/DL
[6]
  ABSOLUTE BASOPHIL: 0 CELLS/uL
  ABSOLUTE EOSINOPHIL: 86.67 CELLS/uL
  ABSOLUTE LYMPHOCYTE: 13093.33 CELLS/uL
  ABSOLUTE MONOCYTE: 240.67 CELLS/uL
  ABSOLUTE SEGMENTED NEUTROPHIL: 779.33 CELLS/uL
  BASOPHIL: 0%
  ERYTHROCYTE COUNT: 5.78 x10E6/uL
  HEMATOCRIT: 36.23%
  HEMOGLOBIN: 13.7 G/DL
  LYMPHOCYTE: 92%
  MEAN CORPUSCULAR HEMOGLOBIN: 23.7 pg
  MEAN CORPUSCULAR HEMOGLOBIN CONCENTRATION: 37.87 G/DL
  MEAN CORPUSCULAR VOLUME: 62.63 fL
  NEUTROPHIL: 5.67%
  NUCLEATED RED BLOOD CELLS: 0 /100WBC
  PLATELET COUNT: 1328.33 x10E3/uL
  ALANINE AMINOTRANSFERASE: 45.33 u/L
  ALKALINE PHOSPHATASE: 285 u/L
  ASPARTATE AMINOTRANSFERASE: 79.67 u/L
  BLOOD UREA NITROGEN: 17.33 mg/dL
  CARBON DIOXIDE: 26.67 mmol/L
  CHOLESTEROL: 69.67 mg/dL
  CREATINE PHOSPHOKINASE: 518.33 u/L
  CREATININE: 0.2 mg/dL
  GLUCOSE: 156.33 mg/dL
  LACTATE DEHYDROGENASE: 92.67 u/L
  LIPASE: 8.67 u/L
  PHOSPHORUS: 13.27 mg/dL
  POTASSIUM: 6.55 MEQ/L
  SODIUM: 147.93 MEQ/L
  TOTAL BILIRUBIN: 0.17 mg/dL
  TOTAL PROTEIN: 6.33 G/DL
